This is an account of results in patent US9982017B2, “Synthetic apelin mimetics for the treatment of heart failure” (priority 2012, dated 2018).

Where a SMILES comes first, the peptide text is derived from it. Bridges are numbered along the chain shown (N, C = ends). [ ]: non-standard residue; d: D form. The star is where a group is joined. ξ: configuration not given here. Bip = N[C@@H](Cc1ccc(-c2ccccc2)cc1)C(=O)O; Myristoyl = CCCCCCCCCCCCCC(=O)*; pGlu = O=C1CC[C@@H](C(=O)O)N1; NHPhenethyl = c1ccc(CCN*)cc1; d(hCys) = N[C@H](CCS)C(=O)O; Nle = CCCC[C@H](N)C(=O)O; Orn = NCCC[C@H](N)C(=O)O; Dab = NCC[C@H](N)C(=O)O; AEEA = NCCOCCOCC(=O)O; ξPip = O=C(O)C1CCCCN1; Aib = CC(C)(N)C(=O)O

This series is described as follows: in vitro. The conditions noted are these: rat, not told, Surrogate activity-based Plasma stability t½.
Take `CCCC[C@@H]1NC(=O)[C@@H]2CCCN2C(=O)CNC(=O)[C@H](CCCCN)NC(=O)C(C)(C)NC(=O)[C@@H](NC(=O)[C@H](CC(C)C)NC(=O)[C@H](CCCNC(=N)N)NC(=O)[C@@H]2CCCN2C(=O)[C@H](CCCNC(=N)N)NC(=O)[C@@H]2CCC(=O)N2)CSSC[C@@H](C(=O)N[C@@H](Cc2ccccc2)C(=O)O)NC1=O` [Example 9, pE-R-P-R-L-C-Aib-K-G-P-Nle-C-F-OH] ([pGlu]RPRLC[Aib]KGP[Nle]CF-OH; disulfide 6-12): the half-life was more than 16.7 h. To `CCCC[C@@H]1NC(=O)[C@@H]2CCCN2C(=O)CNC(=O)[C@H](Cc2ccccc2)NC(=O)[C@H](Cc2c[nH]cn2)NC(=O)[C@@H](NC(=O)[C@H](CC(C)C)NC(=O)[C@H](CCCNC(=N)N)NC(=O)[C@@H]2CCCN2C(=O)[C@H](CCCNC(=N)N)NC(=O)[C@@H]2CCC(=O)N2)CCNC(=O)C[C@@H](C(=O)NCCc2ccccc2)NC1=O` [Example 4, pE-R-P-R-L-Dab-H-F-G-P-Nle-D-Phenethylamine] ([pGlu]RPRL[Dab]HFGP[Nle]D-NHPhenethyl; lactam 6-12) belongs 0.833 h; to `CCCCCCCCCCCCCC(=O)NCCCC[C@@H]1NC(=O)[C@H](Cc2c[nH]cn2)NC(=O)[C@@H](NC(=O)[C@H](CC(C)C)NC(=O)[C@H](CCCNC(=N)N)NC(=O)[C@@H]2CCCN2C(=O)[C@H](CCCNC(=N)N)NC(=O)[C@@H]2CCC(=O)N2)CSSC[C@@H](C(=O)N[C@@H](Cc2ccccc2)C(=O)O)NC(=O)[C@H](CCCC)NC(=O)[C@@H]2CCCN2C(=O)CNC1=O` [Example 61, pE-R-P-R-L-C-H-K(Myristoyl)-G-P-Nle-C-F-OH] ([pGlu]RPRLCHK(Myristoyl)GP[Nle]CF-OH; disulfide 6-12), 4.33 h; to `CCCC[C@@H]1NC(=O)C2CCCCN2C(=O)CNC(=O)[C@H](CCCCN)NC(=O)[C@H](Cc2c[nH]cn2)NC(=O)[C@@H](NC(=O)[C@H](CC(C)C)NC(=O)[C@H](CCCNC(=N)N)NC(=O)[C@@H]2CCCN2C(=O)[C@H](CCCNC(=N)N)NC(=O)[C@@H]2CCC(=O)N2)CSSC[C@@H](C(=O)N[C@@H](Cc2ccccc2)C(=O)O)NC1=O` (stereo partly drawn) [Example 46, pE-R-P-R-L-C-H-K-G-(Pipecolic acid)-Nle-C-F-OH] ([pGlu]RPRLCHKG[ξPip][Nle]CF-OH; disulfide 6-12), 8.37 h. The value for `CCCC[C@@H]1NC(=O)[C@@H]2CCCN2C(=O)CNC(=O)[C@H](CCCCN)NC(=O)C(C)(C)NC(=O)[C@@H](NC(=O)[C@H](CC(C)C)NC(=O)[C@H](CCCNC(=N)N)NC(=O)[C@@H]2CCCN2C(=O)[C@H](CCCNC(=N)N)NC(=O)[C@@H]2CCC(=O)N2)CSSC[C@@H](C(=O)N[C@H](Cc2ccccc2)C(=O)O)NC1=O` [Example 10, pE-R-P-R-L-C-Aib-K-G-P-Nle-C-f-OH] ([pGlu]RPRLC[Aib]KGP[Nle]C[dF]-OH; disulfide 6-12) was more than 16.7 h; that for `CCCC[C@@H]1NC(=O)[C@@H]2CCCN2C(=O)CNC(=O)[C@H](CCCCN)NC(=O)[C@H](Cc2c[nH]cn2)NC(=O)[C@H](NC(=O)[C@H](CC(C)C)NC(=O)[C@H](CCCNC(=N)N)NC(=O)[C@@H]2CCCN2C(=O)[C@H](CCCNC(=N)N)NC(=O)[C@@H]2CCC(=O)N2)CSSC[C@@H](C(=O)N[C@@H](Cc2ccccc2)C(=O)O)NC1=O` [Example 53, pE-R-P-R-L-c-H-K-G-P-Nle-C-F-OH] ([pGlu]RPRL[dC]HKGP[Nle]CF-OH; disulfide 6-12) was more than 16.7 h; that for `CCCC[C@@H]1NC(=O)[C@@H]2CCCN2C(=O)CNC(=O)[C@H](CCCCN)NC(=O)[C@H](Cc2c[nH]cn2)NC(=O)[C@H](NC(=O)[C@H](CC(C)C)NC(=O)[C@H](CCCNC(=N)N)NC(=O)[C@@H]2CCCN2C(=O)[C@H](CCCNC(=N)N)NC(=O)[C@@H]2CCC(=O)N2)CCSSCC[C@H](C(=O)N[C@@H](Cc2ccccc2)C(=O)O)NC1=O` [Example 55, pE-R-P-R-L-(D-hC)-H-K-G-P-Nle-(D-hC)-F-OH] ([pGlu]RPRL[d(hCys)]HKGP[Nle][d(hCys)]F-OH; disulfide 6-12) was more than 16.7 h.

`CCCC[C@@H]1NC(=O)[C@@H]2CCCN2C(=O)CNC(=O)[C@H](CCCCN)NC(=O)[C@H](Cc2c[nH]cn2)NC(=O)[C@@H](NC(=O)[C@H](Cc2ccc(-c3ccccc3)cc2)NC(=O)[C@H](CCCNC(=N)N)NC(=O)[C@@H]2CCCN2C(=O)[C@H](CCCNC(=N)N)NC(=O)[C@@H]2CCC(=O)N2)CSSC[C@@H](C(=O)N[C@@H](Cc2ccccc2)C(=O)O)NC1=O` [Example 41, pE-R-P-R-(4-PhF)-C-H-K-G-P-Nle-C-F-OH] ([pGlu]RPR[Bip]CHKGP[Nle]CF-OH; disulfide 6-12) yielded a half-life of 10.5 h. As to `CCCC[C@@H]1NC(=O)[C@@H]2CCCN2C(=O)CNC(=O)[C@H](CCCCN)NC(=O)[C@H](Cc2c[nH]cn2)NC(=O)[C@@H](NC(=O)[C@H](CC(C)C)NC(=O)[C@H](CCCNC(=N)N)NC(=O)[C@H]2CCCN2C(=O)[C@H](CCCNC(=N)N)NC(=O)[C@@H]2CCC(=O)N2)CSSC[C@@H](C(=O)N[C@@H](Cc2ccccc2)C(=O)O)NC1=O` [Example 33, pE-R-p-R-L-C-H-K-G-P-Nle-C-F-OH] ([pGlu]R[dP]RLCHKGP[Nle]CF-OH; disulfide 6-12), the half-life was more than 16.7 h. `CCCC[C@@H]1NC(=O)[C@@H]2CCCN2C(=O)CNC(=O)[C@H](CCCCN)NC(=O)[C@H](Cc2c[nH]cn2)NC(=O)[C@@H](NC(=O)[C@H](CC(=O)O)NC(=O)[C@H](CCCNC(=N)N)NC(=O)[C@@H]2CCCN2C(=O)[C@H](CCCNC(=N)N)NC(=O)[C@@H]2CCC(=O)N2)CSSC[C@@H](C(=O)N[C@@H](Cc2ccccc2)C(=O)O)NC1=O` [Example 42, pE-R-P-R-D-C-H-K-G-P-Nle-C-F-OH] ([pGlu]RPRDCHKGP[Nle]CF-OH; disulfide 6-12) registered a half-life of more than 16.7 h. The value for `CCCC[C@@H]1NC(=O)[C@@H]2CCCN2C(=O)CNC(=O)[C@H](CCCCN)NC(=O)[C@H](Cc2ccccc2)NC(=O)[C@@H](NC(=O)[C@H](CC(C)C)NC(=O)[C@H](CCCNC(=N)N)NC(=O)[C@@H]2CCCN2C(=O)[C@H](CCCNC(=N)N)NC(=O)[C@@H]2CCC(=O)N2)CSSC[C@@H](C(=O)N[C@@H](Cc2ccccc2)C(=O)O)NC1=O` [Example 15, pE-R-P-R-L-C-F-K-G-P-Nle-C-F-OH] ([pGlu]RPRLCFKGP[Nle]CF-OH; disulfide 6-12) was 3.01 h; that for `CCCC[C@@H]1NC(=O)[C@@H]2CCCN2C(=O)CNC(=O)[C@H](CCCCN)NC(=O)[C@H](Cc2c[nH]cn2)NC(=O)[C@@H](NC(=O)[C@H](CC(C)C)NC(=O)[C@H](CCCNC(=N)N)NC(=O)[C@@H]2CCCN2C(=O)[C@H](CCCNC(=N)N)NC(=O)[C@@H]2CCC(=O)N2)CSSC[C@@H](C(N)=O)NC1=O` [Example 63, pE-R-P-R-L-C-H-K-G-P-Nle-C-NH2] ([pGlu]RPRLCHKGP[Nle]C-NH2; disulfide 6-12) was 11.7 h. Consider `CCCCCCCCCCCCCC(=O)NCCOCCOCC(=O)NCCOCCOCC(=O)NCCOCCOCC(=O)N[C@@H](CCC(N)=O)C(=O)N[C@@H](CCCNC(=N)N)C(=O)N1CCC[C@H]1C(=O)N[C@@H](CCCNC(=N)N)C(=O)N[C@@H](CC(C)C)C(=O)N[C@H]1CSSC[C@@H](C(=O)N[C@H](Cc2ccccc2)C(=O)O)NC(=O)[C@H](CCCC)NC(=O)[C@@H]2CCCN2C(=O)CNC(=O)[C@H](CCCCN)NC(=O)[C@H](Cc2c[nH]cn2)NC1=O` [Example 59, Myristoyl-O2Oc-O2Oc-O2Oc-Q-R-P-R-L-C-H-K-G-P-Nle-C-f-OH] ({Myristoyl-AEEA-AEEA-AEEA}-QRPRLCHKGP[Nle]C[dF]-OH; disulfide 6-12), for which the half-life was more than 16.7 h. The value for `CCCC[C@@H]1NC(=O)[C@@H]2CCCN2C(=O)CNC(=O)[C@H](Cc2ccccc2)NC(=O)[C@H](Cc2c[nH]cn2)NC(=O)[C@@H](NC(=O)[C@H](CC(C)C)NC(=O)[C@H](CCCNC(=N)N)NC(=O)[C@@H]2CCCN2C(=O)[C@H](CCCNC(=N)N)NC(=O)[C@@H]2CCC(=O)N2)CCCNC(=O)C[C@@H](C(=O)NCCc2ccccc2)NC1=O` [Example 3, pE-R-P-R-L-Orn-H-F-G-P-Nle-D-Phenethylamine] ([pGlu]RPRL[Orn]HFGP[Nle]D-NHPhenethyl; lactam 6-12) was 1.63 h; that for `CCCC[C@@H]1NC(=O)[C@@H]2CCCN2C(=O)CNC(=O)[C@H](CCCCN)NC(=O)[C@H](Cc2ccccc2)NC(=O)[C@@H](NC(=O)[C@H](CC(C)C)NC(=O)[C@H](CCCNC(=N)N)NC(=O)[C@@H]2CCCN2C(=O)[C@H](CCCNC(=N)N)NC(=O)[C@@H]2CCC(=O)N2)CCCCNC(=O)[C@H](Cc2ccccc2)NC1=O` [Example 5, pE-R-P-R-L-K-F-K-G-P-Nle-F] ([pGlu]RPRLKFKGP[Nle]F; lactam 6-C) was 2.1 h; that for `CCCC[C@@H]1NC(=O)[C@@H]2CCCN2C(=O)CNC(=O)[C@H](Cc2ccccc2)NC(=O)[C@H](Cc2c[nH]cn2)NC(=O)[C@@H](NC(=O)[C@H](CC(C)C)NC(=O)[C@H](CCCNC(=N)N)NC(=O)[C@@H]2CCCN2C(=O)[C@H](CCCNC(=N)N)NC(=O)[C@@H]2CCC(=O)N2)CCCCNC(=O)C[C@@H](C(=O)NCCc2ccccc2)NC1=O` [Example 1, pE-R-P-R-L-K-H-F-G-P-Nle-D-Phenethylamine] ([pGlu]RPRLKHFGP[Nle]D-NHPhenethyl; lactam 6-12) was 0.512 h. `CCCC[C@@H]1NC(=O)[C@@H]2CCCN2C(=O)CNC(=O)[C@H](CCCCN)NC(=O)[C@H](CCC(=O)O)NC(=O)[C@@H](NC(=O)[C@H](CC(C)C)NC(=O)[C@H](CCCNC(=N)N)NC(=O)[C@@H]2CCCN2C(=O)[C@H](CCCNC(=N)N)NC(=O)[C@@H]2CCC(=O)N2)CSSC[C@@H](C(=O)N[C@@H](Cc2ccccc2)C(=O)O)NC1=O` [Example 43, pE-R-P-R-L-C-E-K-G-P-Nle-C-F-OH] ([pGlu]RPRLCEKGP[Nle]CF-OH; disulfide 6-12): the half-life is more than 16.7 h. Consider `CCCC[C@@H]1NC(=O)[C@@H]2CCCN2C(=O)CNC(=O)[C@H](CCCCN)NC(=O)[C@H](Cc2c[nH]cn2)NC(=O)[C@@H](NC(=O)[C@H](CC(C)C)NC(=O)[C@H](CCCNC(=N)N)NC(=O)[C@@H]2CCCN2C(=O)[C@@H](CCCNC(=N)N)NC(=O)[C@@H]2CCC(=O)N2)CSSC[C@@H](C(=O)N[C@@H](Cc2ccccc2)C(=O)O)NC1=O` [Example 30, pE-r-P-R-L-C-H-K-G-P-Nle-C-F-OH] ([pGlu][dR]PRLCHKGP[Nle]CF-OH; disulfide 6-12), for which the half-life was more than 16.7 h.

As usually defined, the half-life is how long it takes for the measured level to halve. High values mean slow decline, low ones rapid decline.
